Laboratory results from ChEMBL document CHEMBL5532720, “A Potent Solution for Tumor Growth and Angiogenesis Suppression via an ELR+CXCL-CXCR1/2 Pathway Inhibitor” (ACS Med Chem Lett, 2024).
In brackets after ≈: the same amount, converted by molar mass. Activity calls are given as the source filed them. The calls are words filed in the database; no cut-off is given here.

How the values were obtained:
[1] = Aqueous solubility of compound in SGF at pH 2; type: ADME
[2] = biological target: Mitogen-activated protein kinase kinase kinase 3 (Homo sapiens) (UniProt Q99759); assay: Inhibition of MAP3K3 (unknown origin) at 10 uM in presence of ATP at Km concentration
Chain of Mitogen-activated protein kinase kinase kinase 3 (Homo sapiens) (Q99759 whole entry): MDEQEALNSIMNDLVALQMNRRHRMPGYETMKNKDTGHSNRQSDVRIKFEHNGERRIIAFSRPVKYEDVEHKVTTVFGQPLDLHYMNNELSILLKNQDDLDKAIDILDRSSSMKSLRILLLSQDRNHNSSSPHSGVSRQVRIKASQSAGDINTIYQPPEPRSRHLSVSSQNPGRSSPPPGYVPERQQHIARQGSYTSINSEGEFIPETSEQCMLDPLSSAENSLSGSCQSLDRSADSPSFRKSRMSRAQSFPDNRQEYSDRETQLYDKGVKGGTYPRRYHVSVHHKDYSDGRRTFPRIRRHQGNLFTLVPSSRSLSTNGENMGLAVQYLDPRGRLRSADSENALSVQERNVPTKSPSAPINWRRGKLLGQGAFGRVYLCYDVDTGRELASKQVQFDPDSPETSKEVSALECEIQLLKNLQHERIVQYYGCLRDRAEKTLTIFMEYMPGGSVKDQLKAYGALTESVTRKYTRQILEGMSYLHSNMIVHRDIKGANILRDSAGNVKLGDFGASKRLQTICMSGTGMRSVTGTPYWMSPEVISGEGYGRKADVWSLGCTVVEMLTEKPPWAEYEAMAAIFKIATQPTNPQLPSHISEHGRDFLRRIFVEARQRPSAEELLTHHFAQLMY

[3] = biological target: TGF-beta receptor type-2 (Homo sapiens) (UniProt P37173); assay: Inhibition of TGFBR2 (unknown origin) at 10 uM in presence of ATP at Km concentration
Chain of TGF-beta receptor type-2 (Homo sapiens) (P37173 whole entry): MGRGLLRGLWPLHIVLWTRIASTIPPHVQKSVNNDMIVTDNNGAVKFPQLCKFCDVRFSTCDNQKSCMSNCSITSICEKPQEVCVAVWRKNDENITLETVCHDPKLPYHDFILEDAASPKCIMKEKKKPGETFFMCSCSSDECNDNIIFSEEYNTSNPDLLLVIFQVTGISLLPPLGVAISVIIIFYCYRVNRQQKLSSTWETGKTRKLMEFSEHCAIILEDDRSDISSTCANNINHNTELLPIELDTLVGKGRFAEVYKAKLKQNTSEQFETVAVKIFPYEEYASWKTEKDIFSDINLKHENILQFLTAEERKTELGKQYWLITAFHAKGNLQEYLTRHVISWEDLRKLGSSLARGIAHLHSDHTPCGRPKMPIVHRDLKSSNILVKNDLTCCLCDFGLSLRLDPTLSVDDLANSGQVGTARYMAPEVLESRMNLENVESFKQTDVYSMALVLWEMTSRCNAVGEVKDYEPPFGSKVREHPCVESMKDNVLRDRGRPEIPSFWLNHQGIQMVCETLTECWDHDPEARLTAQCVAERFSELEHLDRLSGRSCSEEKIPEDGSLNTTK

[4] = biological target: Tyrosine-protein kinase JAK1 (Homo sapiens) (UniProt P23458); assay: Inhibition of JAK1 (unknown origin) at 10 uM in presence of ATP at Km concentration
[5] = biological target: Serine/threonine-protein kinase tousled-like 2 (Homo sapiens) (UniProt Q86UE8); assay: Inhibition of TLK2 (unknown origin) at 10 uM in presence of ATP at Km concentration
[6] = Stability in human microsomes assessed as half-life; type: ADME, Microsome
[7] = Cmax in NOD SCID mouse at 50 mg/kg, po; type: ADME, organism-based; settings: in vivo
[8] = Half-life in NOD SCID mouse at 1 mg/kg, iv; type: ADME, organism-based; settings: in vivo
[9] = Stability in human plasma assessed as compound remaining measured after 120 mins; type: ADME, cell-free; settings: read-out: Stability
[10] = biological target: Hepatocyte growth factor receptor (Homo sapiens) (UniProt P08581); assay: Inhibition of MET (unknown origin) at 10 uM in presence of ATP at Km concentration
[11] = Tmax in NOD SCID mouse at 50 mg/kg, po; type: ADME, organism-based; settings: in vivo
[12] = biological target: Serine/threonine-protein kinase N2 (Homo sapiens) (UniProt Q16513); assay: Inhibition of PKN2 (unknown origin) at 10 uM in presence of ATP at Km concentration
[13] = Antiproliferative activity against human Sunitinib-resistant 786-R cells incubated for 48 hrs by XTT assay; type: functional, cell-based
[14] = biological target: Ephrin type-A receptor 2 (Homo sapiens) (UniProt P29317); assay: Inhibition of EPHA2 (unknown origin) at 10 uM in presence of ATP at Km concentration
[15] = Stability in mouse hepatocytes assessed as intrinsic clearance measured per 10^6 cells; type: ADME, cell-based, Hepatocyte; settings: read-out: CLH
[16] = AUC (0 to infinity) in NOD SCID mouse at 1 mg/kg, iv; type: ADME, organism-based; settings: in vivo
[17] = Antiproliferative activity against human Cisplatin and radiotherapy resistant CAL27RR cells incubated for 48 hrs by XTT assay; type: functional, cell-based
[18] = Genotoxicity in Salmonella typhimurium TA98 upto 100 uM in absence of S9 fraction by Ames test; type: toxicity; settings: salmonella enterica subsp. enterica serovar typhimurium, s9, 100 µM
[19] = AUC (0 to infinity) in NOD SCID mouse at 200 mg/kg, po; type: ADME, organism-based; settings: in vivo
[20] = Aqueous solubility of compound in water; type: physicochemical
[21] = Genotoxicity in Salmonella typhimurium TA1537 upto 100 uM in absence of S9 fraction by Ames test; type: toxicity; settings: salmonella enterica subsp. enterica serovar typhimurium, s9, 100 µM
[22] = biological target: Phosphatidylinositol 4-phosphate 3-kinase C2 domain-containing subunit alpha (Homo sapiens) (UniProt O00443); assay: Inhibition of PIK3C2A (unknown origin) at 10 uM in presence of ATP at Km concentration
A498 [23] = assay: Inhibition of CXCL5 secretion in human A498 cells at 1 to 2.5 uM incubated for 48 hrs by ELISA; type: functional, cell-based; settings: dose 1-2.5 µM
[24] = biological target: Mitogen-activated protein kinase 15 (Homo sapiens) (UniProt Q8TD08); assay: Inhibition of MAPK15 (unknown origin) at 10 uM in presence of ATP at Km concentration
Chain of Mitogen-activated protein kinase 15 (Homo sapiens) (Q8TD08 whole entry): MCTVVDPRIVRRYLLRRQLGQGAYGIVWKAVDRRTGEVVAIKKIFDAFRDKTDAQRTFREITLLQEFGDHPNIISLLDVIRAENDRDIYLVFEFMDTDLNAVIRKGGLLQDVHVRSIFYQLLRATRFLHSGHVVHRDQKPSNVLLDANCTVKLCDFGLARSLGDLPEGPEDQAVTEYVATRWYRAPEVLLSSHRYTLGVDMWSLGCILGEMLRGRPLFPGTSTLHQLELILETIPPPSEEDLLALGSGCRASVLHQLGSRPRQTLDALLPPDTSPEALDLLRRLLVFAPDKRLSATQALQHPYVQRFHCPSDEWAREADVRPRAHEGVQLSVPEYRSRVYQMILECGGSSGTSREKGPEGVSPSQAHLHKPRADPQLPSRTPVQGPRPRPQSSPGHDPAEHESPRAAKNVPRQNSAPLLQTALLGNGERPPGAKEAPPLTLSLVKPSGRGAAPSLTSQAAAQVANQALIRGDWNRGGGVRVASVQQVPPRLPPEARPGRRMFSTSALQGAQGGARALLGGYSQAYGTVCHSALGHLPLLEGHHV

CAL-27 = assay: Antiproliferative activity against human CAL-27 cells incubated for 48 hrs by XTT assay; type: functional, cell-based; settings: CAL-27, 48 h
[25] = biological target: Ribosomal protein S6 kinase alpha-4 (Homo sapiens) (UniProt O75676); assay: Inhibition of RPS6KA4 (unknown origin) at 10 uM in presence of ATP at Km concentration
TIME = assay: Antiangiogenic activity in human TIME cells assessed as disruption of blood vessel network at 2.5 uM incubated for 24 hrs; type: functional, cell-based
[26] = biological target: Ephrin type-A receptor 5 (Homo sapiens) (UniProt P54756); assay: Inhibition of EPHA5 (unknown origin) at 10 uM in presence of ATP at Km concentration
Chain of Ephrin type-A receptor 5 (Homo sapiens) (P54756 whole entry): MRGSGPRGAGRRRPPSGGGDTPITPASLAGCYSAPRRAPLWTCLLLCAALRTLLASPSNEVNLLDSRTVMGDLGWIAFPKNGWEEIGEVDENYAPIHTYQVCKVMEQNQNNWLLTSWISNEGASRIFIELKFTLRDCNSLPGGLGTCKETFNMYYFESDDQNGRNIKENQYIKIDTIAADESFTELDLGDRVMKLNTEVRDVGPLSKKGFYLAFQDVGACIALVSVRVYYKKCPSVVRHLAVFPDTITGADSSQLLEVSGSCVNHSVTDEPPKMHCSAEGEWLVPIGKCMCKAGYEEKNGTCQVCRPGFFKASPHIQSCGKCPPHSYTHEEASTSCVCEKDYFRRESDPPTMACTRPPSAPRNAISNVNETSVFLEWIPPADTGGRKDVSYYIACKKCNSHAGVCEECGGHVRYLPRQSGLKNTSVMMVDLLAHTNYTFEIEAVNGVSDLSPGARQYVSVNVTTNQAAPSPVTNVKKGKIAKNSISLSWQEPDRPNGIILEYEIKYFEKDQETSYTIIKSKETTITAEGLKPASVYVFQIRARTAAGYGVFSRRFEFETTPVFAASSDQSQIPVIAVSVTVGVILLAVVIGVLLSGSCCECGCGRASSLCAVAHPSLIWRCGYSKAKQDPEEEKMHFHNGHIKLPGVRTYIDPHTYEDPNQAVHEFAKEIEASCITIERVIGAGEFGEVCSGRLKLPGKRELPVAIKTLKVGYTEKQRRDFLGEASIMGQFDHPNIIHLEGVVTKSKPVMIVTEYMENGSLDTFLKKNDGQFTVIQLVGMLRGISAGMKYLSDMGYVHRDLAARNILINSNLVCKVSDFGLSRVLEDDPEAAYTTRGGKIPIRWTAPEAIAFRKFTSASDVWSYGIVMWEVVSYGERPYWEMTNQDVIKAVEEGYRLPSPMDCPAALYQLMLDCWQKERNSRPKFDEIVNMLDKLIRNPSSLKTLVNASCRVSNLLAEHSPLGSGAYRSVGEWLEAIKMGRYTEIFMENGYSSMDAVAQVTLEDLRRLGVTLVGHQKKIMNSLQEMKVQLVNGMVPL

[27] = Genotoxicity in Salmonella typhimurium TA1535 upto 100 uM in presence of S9 fraction by Ames test; type: toxicity, subcellular; settings: salmonella enterica subsp. enterica serovar typhimurium, s9, 100 µM
[28] = Genotoxicity in Salmonella typhimurium TA100 upto 100 uM in absence of S9 fraction by Ames test; type: toxicity; settings: salmonella enterica subsp. enterica serovar typhimurium, s9, 100 µM
[29] = Oral bioavailability in NOD SCID mouse at 200 mg/kg; type: ADME, organism-based; settings: in vivo
[30] = biological target: Ribosomal protein S6 kinase beta-2 (Homo sapiens) (UniProt Q9UBS0); assay: Inhibition of RPS6KB2 (unknown origin) at 10 uM in presence of ATP at Km concentration
Chain of Ribosomal protein S6 kinase beta-2 (Homo sapiens) (Q9UBS0 whole entry): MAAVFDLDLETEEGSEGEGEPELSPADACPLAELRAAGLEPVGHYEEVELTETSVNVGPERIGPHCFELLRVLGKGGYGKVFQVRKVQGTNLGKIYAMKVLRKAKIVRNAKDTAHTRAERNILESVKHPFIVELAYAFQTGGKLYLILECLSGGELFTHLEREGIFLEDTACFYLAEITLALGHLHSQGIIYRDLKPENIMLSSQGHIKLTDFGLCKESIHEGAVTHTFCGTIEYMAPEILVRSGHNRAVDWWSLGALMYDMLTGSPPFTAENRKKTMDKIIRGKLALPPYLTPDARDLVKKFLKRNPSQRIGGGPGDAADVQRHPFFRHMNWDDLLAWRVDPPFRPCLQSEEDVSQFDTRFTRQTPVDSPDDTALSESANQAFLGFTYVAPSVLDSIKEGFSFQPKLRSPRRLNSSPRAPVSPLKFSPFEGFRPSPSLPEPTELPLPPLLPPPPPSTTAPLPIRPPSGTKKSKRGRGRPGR

[31] = Stability of compound at pH 12 measured after 24 hrs; type: physicochemical; settings: buffer, pH 12, 24 h
[32] = biological target: cGMP-dependent protein kinase 1 (Homo sapiens) (UniProt Q13976); assay: Inhibition of PRKG1 (unknown origin) at 10 uM in presence of ATP at Km concentration
[33] = biological target: [Pyruvate dehydrogenase (acetyl-transferring)] kinase isozyme 1, mitochondrial (Homo sapiens) (UniProt Q15118); assay: Inhibition of PDK1 (unknown origin) at 10 uM in presence of ATP at Km concentration
A498 [34] = assay: Inhibition of CXCL8 secretion in human A498 cells at 1 to 2.5 uM incubated for 48 hrs by ELISA; type: functional, cell-based; settings: dose 1-2.5 µM
[35] = AUC (0 to infinity) in NOD SCID mouse at 50 mg/kg, po; type: ADME, organism-based; settings: in vivo
[36] = Genotoxicity in Salmonella typhimurium TA100 upto 100 uM in presence of S9 fraction by Ames test; type: toxicity, subcellular; settings: salmonella enterica subsp. enterica serovar typhimurium, s9, 100 µM
[37] = biological target: Tyrosine-protein kinase Fyn (Homo sapiens) (UniProt P06241); assay: Inhibition of FYN (unknown origin) at 10 uM in presence of ATP at Km concentration
Chain of Tyrosine-protein kinase Fyn (Homo sapiens) (P06241 2-537 limits assumed): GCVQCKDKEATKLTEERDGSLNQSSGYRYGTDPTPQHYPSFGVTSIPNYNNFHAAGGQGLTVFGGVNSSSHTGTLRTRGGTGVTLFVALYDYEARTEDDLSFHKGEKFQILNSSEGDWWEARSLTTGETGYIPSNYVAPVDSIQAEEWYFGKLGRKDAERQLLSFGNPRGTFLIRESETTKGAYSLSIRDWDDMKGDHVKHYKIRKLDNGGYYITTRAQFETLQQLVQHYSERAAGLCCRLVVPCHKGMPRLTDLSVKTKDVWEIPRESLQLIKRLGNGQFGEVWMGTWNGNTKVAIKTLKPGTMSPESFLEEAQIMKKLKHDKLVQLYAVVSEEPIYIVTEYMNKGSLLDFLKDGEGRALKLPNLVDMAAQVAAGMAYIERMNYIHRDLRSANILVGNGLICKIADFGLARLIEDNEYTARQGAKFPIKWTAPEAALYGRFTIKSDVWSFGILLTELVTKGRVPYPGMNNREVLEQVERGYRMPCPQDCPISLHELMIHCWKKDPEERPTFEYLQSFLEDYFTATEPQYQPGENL

[38] = Stability in human microsomes assessed as intrinsic clearance; type: ADME, Microsome
[39] = biological target: Ephrin type-B receptor 2 (Homo sapiens) (UniProt P29323); assay: Inhibition of EPHB2 (unknown origin) at 10 uM in presence of ATP at Km concentration
Chain of Ephrin type-B receptor 2 (Homo sapiens) (P29323 whole entry): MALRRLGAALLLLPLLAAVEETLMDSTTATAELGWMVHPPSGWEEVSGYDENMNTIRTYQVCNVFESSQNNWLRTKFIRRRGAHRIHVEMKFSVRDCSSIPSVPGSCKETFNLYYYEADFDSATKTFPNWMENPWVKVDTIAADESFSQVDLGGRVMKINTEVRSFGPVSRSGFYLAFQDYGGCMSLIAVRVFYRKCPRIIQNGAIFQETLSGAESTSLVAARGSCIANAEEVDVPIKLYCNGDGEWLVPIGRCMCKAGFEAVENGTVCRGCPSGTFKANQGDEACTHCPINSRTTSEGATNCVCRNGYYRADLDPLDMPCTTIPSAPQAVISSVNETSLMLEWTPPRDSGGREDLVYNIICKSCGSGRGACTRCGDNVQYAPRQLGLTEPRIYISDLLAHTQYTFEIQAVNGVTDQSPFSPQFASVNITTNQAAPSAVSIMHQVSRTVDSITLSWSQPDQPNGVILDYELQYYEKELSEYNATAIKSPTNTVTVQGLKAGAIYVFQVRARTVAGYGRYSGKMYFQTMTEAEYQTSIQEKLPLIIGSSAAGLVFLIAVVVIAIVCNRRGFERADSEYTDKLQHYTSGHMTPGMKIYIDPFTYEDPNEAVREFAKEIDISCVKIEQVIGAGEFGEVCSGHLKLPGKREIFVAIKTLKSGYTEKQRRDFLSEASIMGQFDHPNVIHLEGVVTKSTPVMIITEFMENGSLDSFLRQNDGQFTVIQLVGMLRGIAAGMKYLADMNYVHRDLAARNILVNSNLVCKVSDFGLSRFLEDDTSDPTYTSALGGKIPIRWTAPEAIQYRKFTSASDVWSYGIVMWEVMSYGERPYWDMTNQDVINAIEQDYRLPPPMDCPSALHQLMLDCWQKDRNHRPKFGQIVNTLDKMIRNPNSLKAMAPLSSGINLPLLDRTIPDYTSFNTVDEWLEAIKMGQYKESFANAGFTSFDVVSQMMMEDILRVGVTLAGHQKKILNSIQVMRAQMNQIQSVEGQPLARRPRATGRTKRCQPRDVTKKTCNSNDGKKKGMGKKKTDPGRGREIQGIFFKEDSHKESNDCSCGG

[40] = Stability in mouse microsomes assessed as intrinsic clearance; type: ADME, Microsome
[41] = biological target: Receptor-interacting serine/threonine-protein kinase 2 (Homo sapiens) (UniProt O43353); assay: Inhibition of RIPK2 (unknown origin) at 10 uM in presence of ATP at Km concentration
[42] = biological target: Interleukin-1 receptor-associated kinase 4 (Homo sapiens) (UniProt Q9NWZ3); assay: Inhibition of IRAK4 (unknown origin) at 10 uM in presence of ATP at Km concentration

With `O=C(Nc1cc(Cl)cc(Cl)c1)Nc1nc2ccc([N+](=O)[O-])cc2s1` the solubility [1] was 3.4 µM (≈ 1.3 µg/mL), the inhibition [2] was “inactive” and the inhibition [3] was “inactive”. The inhibition [4] was “inactive”, the inhibition [5] was “inactive” and the half-life [6] was over 60 min. The Cmax [7] was 2000 nM, the half-life [8] was 24 min and the remaining at 2 h [9] was 85%. The inhibition [10] was “inactive”, the Tmax [11] was 1.5 h and the inhibition [12] was “inactive”. The IC50 [13] was 3000 nM, the inhibition [14] was “inactive” and the hepatocyte CLint [15] was 65.8 µL/min/1e6 cells. For the same compound, the AUC(0-inf) [16] was 433 ng·h/mL, the IC50 [17] was 2500 nM and the Activity [18] was “Non-Toxic”. The AUC(0-inf) [19] was 19300 ng·h/mL, the solubility [20] was 1.2 µM (≈ 0.46 µg/mL) and the Activity [21] was “Non-Toxic”. The inhibition [22] was “inactive”, the inhibition (A498 [23]) was “Active” and the inhibition [24] was “inactive”. For the same compound, the IC50 (CAL-27) was 2500 nM, the inhibition [25] was “inactive” and the Activity (TIME) was “Active”. For the same compound, the inhibition [26] was “inactive”, the Activity [27] was “Non-Toxic” and the Activity [28] was “Non-Toxic”. The bioavailability [29] was 22%, the inhibition [30] was “inactive” and the Stability [31] was “Stable”. The inhibition [32] was “inactive”, the inhibition [33] was “inactive” and the inhibition (A498 [34]) was “Active”. For the same compound, the AUC(0-inf) [35] was 8390 ng·h/mL, the Activity [36] was “Non-Toxic” and the inhibition [37] was “inactive”. For the same compound, the microsomal CLint [38] was under 116 µL/min/mg, the inhibition [39] was “inactive” and the microsomal CLint [40] was under 116 µL/min/mg. The inhibition [41] was “inactive” and the inhibition [42] was “inactive”.
